From ChEMBL document CHEMBL2429780, “Synthesis, antimicrobial and cytotoxic activity of 2-azetidinone derivatives of pyridyl benzimidazoles” (Med Chem Res, 2013)
pIC50: −log10 of the molar value. Values after ≈ are worked out from the molar mass of the structure shown. Active and inactive are the calls of the source. No cut-off for these calls is given here.

Assays:
Aspergillus clavatus [1] = assay: Antifungal activity against Aspergillus clavatus assessed as growth inhibition after 48 hrs by broth dilution assay; assay type: functional
Escherichia coli [2] = assay: Antibacterial activity against Escherichia coli MTCC 443 assessed as growth inhibition after 24 hrs by broth dilution assay; assay type: functional; conditions: MTCC 443, 24 h
HeLa = assay: Cytotoxicity against human HeLa cells assessed as growth inhibition after 24 to 72 hrs by MTT assay; assay type: cell-based
Aspergillus niger [3] = assay: Antifungal activity against Aspergillus niger assessed as growth inhibition after 48 hrs by broth dilution assay; assay type: functional
Candida albicans [4] = assay: Antifungal activity against Candida albicans assessed as growth inhibition after 48 hrs by broth dilution assay; assay type: functional
Pseudomonas aeruginosa [5] = assay: Antibacterial activity against Pseudomonas aeruginosa MTCC 1688 assessed as growth inhibition after 24 hrs by broth dilution assay; assay type: functional; conditions: MTCC 1688, 24 h
Staphylococcus aureus [6] = assay: Antibacterial activity against Staphylococcus aureus MTCC 96 assessed as growth inhibition after 24 hrs by broth dilution assay; assay type: functional; conditions: MTCC 96, 24 h
Streptococcus pyogenes [7] = assay: Antibacterial activity against Streptococcus pyogenes MTCC 442 assessed as growth inhibition after 24 hrs by broth dilution assay; assay type: functional; conditions: MTCC 442, 24 h
Candida albicans [8] = assay: Antifungal activity against Candida albicans assessed as growth inhibition at 12.5 to 1000 ug/mL after 48 hrs by broth dilution assay; assay type: functional, organism-based
Aspergillus niger [9] = assay: Antifungal activity against Aspergillus niger assessed as growth inhibition at 12.5 to 1000 ug/mL after 48 hrs by broth dilution assay; assay type: functional, organism-based
Aspergillus clavatus [10] = assay: Antifungal activity against Aspergillus clavatus assessed as growth inhibition at 12.5 to 1000 ug/mL after 48 hrs by broth dilution assay; assay type: functional, organism-based
Streptococcus pyogenes [11] = assay: Antibacterial activity against Streptococcus pyogenes MTCC 442 assessed as growth inhibition at 12.5 to 1000 ug/mL after 24 hrs by broth dilution assay; assay type: functional, organism-based
Staphylococcus aureus [12] = assay: Antibacterial activity against Staphylococcus aureus MTCC 96 assessed as growth inhibition at 12.5 to 1000 ug/mL after 24 hrs by broth dilution assay; assay type: functional, organism-based
Escherichia coli [13] = assay: Antibacterial activity against Escherichia coli MTCC 443 assessed as growth inhibition at 12.5 to 1000 ug/mL after 24 hrs by broth dilution assay; assay type: functional, organism-based
Pseudomonas aeruginosa [14] = assay: Antibacterial activity against Pseudomonas aeruginosa MTCC 1688 assessed as growth inhibition at 12.5 to 1000 ug/mL after 24 hrs by broth dilution assay; assay type: functional, organism-based

Compound	MIC (Aspergillus clavatus [1]) [µg/mL]	MIC (Escherichia coli [2]) [µg/mL]	pIC50 (HeLa)	MIC (Aspergillus niger [3]) [µg/mL]	MIC (Candida albicans [4]) [µg/mL]	MIC (Pseudomonas aeruginosa [5]) [µg/mL]	MIC (Staphylococcus aureus [6]) [µg/mL]	MIC (Streptococcus pyogenes [7]) [µg/mL]	growth inhibition (GI) (Candida albicans [8])	growth inhibition (GI) (Aspergillus niger [9])	growth inhibition (GI) (Aspergillus clavatus [10])	growth inhibition (GI) (Streptococcus pyogenes [11])	growth inhibition (GI) (Staphylococcus aureus [12])	growth inhibition (GI) (Escherichia coli [13])	growth inhibition (GI) (Pseudomonas aeruginosa [14])
N#Cc1c(-c2cccc(O)c2)cc(-c2nc3ccccc3[nH]2)nc1N1C(=O)C(Cl)C1c1ccccc1 (stereo unspecified)	250 (≈ 508 µM)	500 (≈ 1020 µM)	4.06	500 (≈ 1020 µM)	250 (≈ 508 µM)	500 (≈ 1020 µM)	500 (≈ 1020 µM)	500 (≈ 1020 µM)							
Cc1ccc(-c2cc(-c3nc4ccccc4[nH]3)nc(N3C(=O)C(Cl)C3c3ccccc3)c2C#N)cc1 (stereo unspecified)	500 (≈ 1020 µM)	100 (≈ 204 µM)	4.13	500 (≈ 1020 µM)	500 (≈ 1020 µM)	500 (≈ 1020 µM)	250 (≈ 510 µM)	500 (≈ 1020 µM)							
N#Cc1c(-c2ccccc2O)cc(-c2nc3ccccc3[nH]2)nc1N									inactive	inactive	inactive	inactive	inactive	inactive	inactive
N#Cc1c(-c2cccc([N+](=O)[O-])c2)cc(-c2nc3ccccc3[nH]2)nc1N	≥ 1000			≥ 1000	≥ 1000	≥ 1000	≥ 1000	≥ 1000							
N#Cc1c(-c2cccc(Cl)c2)cc(-c2nc3ccccc3[nH]2)nc1/N=C/c1ccccc1						1000 (≈ 2300 µM)		1000 (≈ 2300 µM)	inactive	inactive	inactive				
CC(=O)N1CCN(c2ccc(OCC3COC(Cn4ccnc4)(c4ccc(Cl)cc4Cl)O3)cc2)CC1 (stereo unspecified) [KETOCONAZOLE]	50 (≈ 94.1 µM)			50 (≈ 94.1 µM)	50 (≈ 94.1 µM)										
N#Cc1c(-c2ccc(Cl)cc2)cc(-c2nc3ccccc3[nH]2)nc1N1C(=O)C(Cl)C1c1ccccc1 (stereo unspecified)	100 (≈ 196 µM)	12.5 (≈ 24.5 µM)	< 4.00	100 (≈ 196 µM)	100 (≈ 196 µM)	12.5 (≈ 24.5 µM)	12.5 (≈ 24.5 µM)	25 (≈ 49 µM)							
N#Cc1c(-c2ccccc2Cl)cc(-c2nc3ccccc3[nH]2)nc1/N=C/c1ccccc1						1000 (≈ 2300 µM)		1000 (≈ 2300 µM)							
N#Cc1c(-c2cccc([N+](=O)[O-])c2)cc(-c2nc3ccccc3[nH]2)nc1N1C(=O)C(Cl)C1c1ccccc1 (stereo unspecified)	50 (≈ 96 µM)	50 (≈ 96 µM)	< 4.00	50 (≈ 96 µM)	50 (≈ 96 µM)	50 (≈ 96 µM)	25 (≈ 48 µM)	50 (≈ 96 µM)							
N#Cc1c(-c2cccc(Cl)c2)cc(-c2nc3ccccc3[nH]2)nc1N1C(=O)C(Cl)C1c1ccccc1 (stereo unspecified)	50 (≈ 98 µM)	50 (≈ 98 µM)	< 4.00	25 (≈ 49 µM)	50 (≈ 98 µM)	25 (≈ 49 µM)	25 (≈ 49 µM)	50 (≈ 98 µM)							
N#Cc1c(-c2ccccc2Cl)cc(-c2nc3ccccc3[nH]2)nc1N1C(=O)C(Cl)C1c1ccccc1 (stereo unspecified)	100 (≈ 196 µM)	100 (≈ 196 µM)	< 4.00	100 (≈ 196 µM)	100 (≈ 196 µM)	250 (≈ 490 µM)	100 (≈ 196 µM)	100 (≈ 196 µM)							
COc1cccc(-c2cc(-c3nc4ccccc4[nH]3)nc(N3C(=O)C(Cl)C3c3ccccc3)c2C#N)c1 (stereo unspecified)	250 (≈ 494 µM)	250 (≈ 494 µM)	4.19	500 (≈ 988 µM)	500 (≈ 988 µM)	500 (≈ 988 µM)	500 (≈ 988 µM)	500 (≈ 988 µM)							
O=C(N[C@H](CO)[C@H](O)c1ccc([N+](=O)[O-])cc1)C(Cl)Cl [CHLORAMPHENICOL]		50 (≈ 155 µM)				50 (≈ 155 µM)	50 (≈ 155 µM)	50 (≈ 155 µM)							
N#Cc1c(-c2ccc(Cl)cc2)cc(-c2nc3ccccc3[nH]2)nc1/N=C/c1ccccc1						1000 (≈ 2300 µM)		1000 (≈ 2300 µM)							
COc1ccc(-c2cc(-c3nc4ccccc4[nH]3)nc(N3C(=O)C(Cl)C3c3ccccc3)c2C#N)cc1 (stereo unspecified)	500 (≈ 988 µM)	100 (≈ 198 µM)	4.24	500 (≈ 988 µM)	1000 (≈ 1980 µM)	250 (≈ 494 µM)	500 (≈ 988 µM)	250 (≈ 494 µM)							
N#Cc1c(-c2cccc([N+](=O)[O-])c2)cc(-c2nc3ccccc3[nH]2)nc1/N=C/c1ccccc1						1000 (≈ 2250 µM)		1000 (≈ 2250 µM)	inactive	inactive	inactive				
N#Cc1c(-c2ccc(O)cc2)cc(-c2nc3ccccc3[nH]2)nc1N1C(=O)C(Cl)C1c1ccccc1 (stereo unspecified)	250 (≈ 508 µM)	250 (≈ 508 µM)	4.17	500 (≈ 1020 µM)	500 (≈ 1020 µM)	250 (≈ 508 µM)	250 (≈ 508 µM)	250 (≈ 508 µM)							
